Measured values published in article PMC11497331 (Glia, 2021).

Tested on: primary microglia from wild-type (WT) mice
Assay type: cell-based

## C=C1[C@@H](C)[C@H]2[C@H](Cc3ccccc3)NC(=O)[C@]23[C@H](OC(C)=O)/C=C/[C@@](C)(O)C(=O)[C@@H](C)C/C=C/[C@H]3[C@@H]1O [cytochalasin D, Cytochalasin D]
  effect of cytochalasin D on Aβ uptake: reduced
